Measured values published in US10245261B2, “Substituted indol-5-ol derivatives and their therapeutic applications” (NantBioScience, Inc., priority 2013, dated 2019).

Experiments:
Assay in all cases: KinaseProfiler kinase assay
Format in all cases: biochemical
JNK3(h) = JNK3(h) (Homo sapiens, UniProt P53779)
In short: (§1)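 Using a filter-binding 33P format, reactions initiated by MgATP addition proceeded 40 min at room temperature before a 3% phosphoric acid stop. Filtermats were washed three times in 50 mM phosphoric acid and once in methanol, dried and counted.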

MRCKβ(h) = MRCKβ(h) (Homo sapiens, UniProt Q9Y5S2)
In short: as §1

SAPK2a(T106M)(h) = SAPK2a(T106M)(h) (Homo sapiens, UniProt Q16539, T106M)
In short: as §1

ROCK-II(h) = ROCK-II(h) (Homo sapiens, UniProt O75116)
In short: as §1

cKit(D816H)(h) = cKit(D816H)(h) (Homo sapiens, UniProt P10721, D816H)
In short: as §1

p70S6K(h) = p70S6K(h) (Homo sapiens, UniProt P23443)
In short: as §1

CDK5/p35(h) = CDK5/p35(h) (Homo sapiens, UniProt Q00535)
In short: as §1

[1] = biological target: PI3 Kinase (p110α/p65α)(h) (Homo sapiens, UniProt P42336)
In short: as §1

[2] = biological target: PI3 Kinase (p110α/p85α)(m) (Mus musculus, UniProt P42337)
In short: as §1

Met(h) = Met(h) (Homo sapiens, UniProt P08581)
In short: as §1

eEF-2K(h) = eEF-2K(h) (Homo sapiens, UniProt O00418)
In short: as §1

EphA7(h) = EphA7(h) (Homo sapiens, UniProt Q15375)
In short: as §1

TAK1(h) = TAK1(h) (Homo sapiens, UniProt O43318)
TAK1(h), sequence (O43318 1-303): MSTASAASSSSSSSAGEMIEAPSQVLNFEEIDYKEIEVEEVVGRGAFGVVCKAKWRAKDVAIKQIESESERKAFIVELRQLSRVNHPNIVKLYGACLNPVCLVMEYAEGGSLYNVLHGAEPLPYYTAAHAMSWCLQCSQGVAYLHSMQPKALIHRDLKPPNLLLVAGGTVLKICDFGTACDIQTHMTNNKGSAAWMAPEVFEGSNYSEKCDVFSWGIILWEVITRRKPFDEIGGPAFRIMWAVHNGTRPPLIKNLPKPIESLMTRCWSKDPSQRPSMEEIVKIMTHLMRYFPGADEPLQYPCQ
In short: as §1

CHK2(h) = CHK2(h) (Homo sapiens, UniProt O96017)
In short: as §1

EphA1(h) = EphA1(h) (Homo sapiens, UniProt P21709)
In short: as §1

AMPKα1(h) = AMPKα1(h) (Homo sapiens, UniProt Q13131)
In short: as §1

Hck(h) = Hck(h) (Homo sapiens, UniProt P08631)
In short: as §1

Fms(Y969C)(h) = Fms(Y969C)(h) (Homo sapiens, UniProt P07333, Y969C)
Fms(Y969C)(h), sequence (P07333 20-972 Y969C): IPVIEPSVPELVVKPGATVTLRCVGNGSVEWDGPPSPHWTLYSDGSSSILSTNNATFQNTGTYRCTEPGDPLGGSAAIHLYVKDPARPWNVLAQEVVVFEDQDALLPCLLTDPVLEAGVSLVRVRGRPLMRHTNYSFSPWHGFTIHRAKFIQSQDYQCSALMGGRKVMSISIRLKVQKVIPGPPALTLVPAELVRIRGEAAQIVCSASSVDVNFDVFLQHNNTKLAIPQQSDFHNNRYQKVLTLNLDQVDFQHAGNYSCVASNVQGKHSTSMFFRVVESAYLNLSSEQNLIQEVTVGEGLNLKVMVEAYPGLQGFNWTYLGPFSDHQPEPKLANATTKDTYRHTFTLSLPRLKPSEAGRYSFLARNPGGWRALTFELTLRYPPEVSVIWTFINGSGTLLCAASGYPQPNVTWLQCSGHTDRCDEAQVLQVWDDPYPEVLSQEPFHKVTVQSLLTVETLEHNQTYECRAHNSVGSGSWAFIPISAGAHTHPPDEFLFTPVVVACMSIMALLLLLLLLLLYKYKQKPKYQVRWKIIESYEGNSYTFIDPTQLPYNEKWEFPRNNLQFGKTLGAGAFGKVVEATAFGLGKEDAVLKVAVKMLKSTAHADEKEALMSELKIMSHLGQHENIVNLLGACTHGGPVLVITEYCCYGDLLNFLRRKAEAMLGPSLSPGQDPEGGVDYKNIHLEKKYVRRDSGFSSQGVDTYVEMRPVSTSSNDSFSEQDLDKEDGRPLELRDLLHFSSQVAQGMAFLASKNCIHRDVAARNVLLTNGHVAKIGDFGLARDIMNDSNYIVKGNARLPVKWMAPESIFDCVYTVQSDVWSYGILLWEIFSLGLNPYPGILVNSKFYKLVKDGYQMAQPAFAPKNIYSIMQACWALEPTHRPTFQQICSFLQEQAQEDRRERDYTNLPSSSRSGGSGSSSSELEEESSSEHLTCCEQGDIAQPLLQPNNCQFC
In short: as §1

ALK4(h) = ALK4(h) (Homo sapiens, UniProt P36896)
ALK4(h), sequence (P36896 24-505): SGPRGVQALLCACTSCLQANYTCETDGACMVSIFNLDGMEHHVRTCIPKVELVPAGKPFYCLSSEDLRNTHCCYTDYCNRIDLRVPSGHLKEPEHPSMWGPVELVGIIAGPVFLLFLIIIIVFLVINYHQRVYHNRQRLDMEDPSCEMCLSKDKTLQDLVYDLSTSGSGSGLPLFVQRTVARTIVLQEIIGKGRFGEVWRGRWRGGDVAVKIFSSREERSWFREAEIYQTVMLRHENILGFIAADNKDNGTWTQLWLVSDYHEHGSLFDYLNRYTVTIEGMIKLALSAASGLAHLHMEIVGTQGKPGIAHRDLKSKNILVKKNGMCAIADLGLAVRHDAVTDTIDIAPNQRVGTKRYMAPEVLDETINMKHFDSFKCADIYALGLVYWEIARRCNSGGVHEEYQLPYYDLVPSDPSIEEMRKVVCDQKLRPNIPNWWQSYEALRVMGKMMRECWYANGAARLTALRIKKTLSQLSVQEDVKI
In short: as §1

MuSK(h) = MuSK(h) (Homo sapiens, UniProt O15146)
MuSK(h), sequence (O15146 24-869): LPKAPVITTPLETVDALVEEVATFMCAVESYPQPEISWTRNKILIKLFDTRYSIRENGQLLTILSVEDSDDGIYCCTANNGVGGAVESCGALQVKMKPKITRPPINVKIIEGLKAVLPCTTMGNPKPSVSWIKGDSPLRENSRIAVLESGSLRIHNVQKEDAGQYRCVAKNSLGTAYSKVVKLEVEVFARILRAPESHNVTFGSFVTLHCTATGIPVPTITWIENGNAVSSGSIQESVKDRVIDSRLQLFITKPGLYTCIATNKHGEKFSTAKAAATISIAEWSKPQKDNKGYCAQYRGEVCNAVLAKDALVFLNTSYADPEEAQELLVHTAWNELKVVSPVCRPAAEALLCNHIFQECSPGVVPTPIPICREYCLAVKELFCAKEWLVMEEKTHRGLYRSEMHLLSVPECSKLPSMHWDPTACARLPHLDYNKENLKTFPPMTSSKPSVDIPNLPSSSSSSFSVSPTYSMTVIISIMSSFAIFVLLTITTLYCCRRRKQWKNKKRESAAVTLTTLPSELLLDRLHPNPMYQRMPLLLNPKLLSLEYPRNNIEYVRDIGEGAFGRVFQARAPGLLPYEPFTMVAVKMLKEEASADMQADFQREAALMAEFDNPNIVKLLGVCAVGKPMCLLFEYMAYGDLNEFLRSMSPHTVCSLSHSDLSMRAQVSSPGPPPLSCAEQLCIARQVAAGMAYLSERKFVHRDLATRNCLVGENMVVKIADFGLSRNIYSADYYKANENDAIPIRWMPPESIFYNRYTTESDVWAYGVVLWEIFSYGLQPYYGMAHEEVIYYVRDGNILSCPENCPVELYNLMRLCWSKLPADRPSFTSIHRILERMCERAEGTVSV
In short: as §1

Tie2(Y897S)(h) = Tie2(Y897S)(h) (Homo sapiens, UniProt Q02763, Y897S)
In short: as §1

CK2(h) = CK2(h) (Homo sapiens, UniProt P68400)
In short: as §1

Met(Y1248D)(h) = Met(Y1248D)(h) (Homo sapiens, UniProt P08581, Y1230D)
Met(Y1248D)(h), sequence (P08581 25-1408 isoform P08581-2 Y1248D): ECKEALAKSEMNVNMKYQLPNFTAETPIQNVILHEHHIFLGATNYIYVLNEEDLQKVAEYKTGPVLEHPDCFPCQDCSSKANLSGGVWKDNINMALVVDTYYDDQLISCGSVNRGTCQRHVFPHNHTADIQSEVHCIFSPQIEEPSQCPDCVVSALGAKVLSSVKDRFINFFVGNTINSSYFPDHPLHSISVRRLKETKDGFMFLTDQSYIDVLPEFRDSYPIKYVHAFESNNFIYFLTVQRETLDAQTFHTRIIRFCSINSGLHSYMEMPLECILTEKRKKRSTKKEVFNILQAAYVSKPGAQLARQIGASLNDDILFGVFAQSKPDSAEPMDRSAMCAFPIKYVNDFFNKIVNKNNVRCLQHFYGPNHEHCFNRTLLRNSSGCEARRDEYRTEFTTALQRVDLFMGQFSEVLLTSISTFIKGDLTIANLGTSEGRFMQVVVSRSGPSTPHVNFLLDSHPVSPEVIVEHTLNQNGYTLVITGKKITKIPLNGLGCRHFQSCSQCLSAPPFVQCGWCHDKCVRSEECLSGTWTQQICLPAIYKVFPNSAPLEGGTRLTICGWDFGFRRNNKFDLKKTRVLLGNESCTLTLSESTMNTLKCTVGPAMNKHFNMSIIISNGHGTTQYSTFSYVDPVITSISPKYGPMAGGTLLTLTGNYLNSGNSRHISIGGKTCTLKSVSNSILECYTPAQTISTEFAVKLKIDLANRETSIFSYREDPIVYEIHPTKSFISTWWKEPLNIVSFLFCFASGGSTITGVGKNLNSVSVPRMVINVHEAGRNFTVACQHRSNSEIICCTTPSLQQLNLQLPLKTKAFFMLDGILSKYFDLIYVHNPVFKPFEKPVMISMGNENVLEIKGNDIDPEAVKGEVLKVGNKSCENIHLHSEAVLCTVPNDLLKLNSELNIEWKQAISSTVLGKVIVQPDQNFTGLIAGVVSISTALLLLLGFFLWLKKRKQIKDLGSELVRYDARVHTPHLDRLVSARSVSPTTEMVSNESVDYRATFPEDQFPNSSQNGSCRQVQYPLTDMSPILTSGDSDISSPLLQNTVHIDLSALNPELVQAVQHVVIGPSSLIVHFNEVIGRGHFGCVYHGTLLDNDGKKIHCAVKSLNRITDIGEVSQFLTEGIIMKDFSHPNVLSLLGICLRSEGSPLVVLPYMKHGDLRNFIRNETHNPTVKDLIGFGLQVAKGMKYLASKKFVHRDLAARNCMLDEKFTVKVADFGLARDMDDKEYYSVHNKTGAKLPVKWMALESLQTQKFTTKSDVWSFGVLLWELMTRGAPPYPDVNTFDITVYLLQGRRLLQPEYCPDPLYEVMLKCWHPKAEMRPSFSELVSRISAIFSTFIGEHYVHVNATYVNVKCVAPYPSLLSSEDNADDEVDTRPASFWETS
In short: as §1

MLCK(h) = MLCK(h) (Homo sapiens, UniProt Q9H1R3)
In short: as §1

Pim-2(h) = Pim-2(h) (Homo sapiens, UniProt Q9P1W9)
In short: as §1

EphA4(h) = EphA4(h) (Homo sapiens, UniProt P54764)
EphA4(h), sequence (P54764 20-986): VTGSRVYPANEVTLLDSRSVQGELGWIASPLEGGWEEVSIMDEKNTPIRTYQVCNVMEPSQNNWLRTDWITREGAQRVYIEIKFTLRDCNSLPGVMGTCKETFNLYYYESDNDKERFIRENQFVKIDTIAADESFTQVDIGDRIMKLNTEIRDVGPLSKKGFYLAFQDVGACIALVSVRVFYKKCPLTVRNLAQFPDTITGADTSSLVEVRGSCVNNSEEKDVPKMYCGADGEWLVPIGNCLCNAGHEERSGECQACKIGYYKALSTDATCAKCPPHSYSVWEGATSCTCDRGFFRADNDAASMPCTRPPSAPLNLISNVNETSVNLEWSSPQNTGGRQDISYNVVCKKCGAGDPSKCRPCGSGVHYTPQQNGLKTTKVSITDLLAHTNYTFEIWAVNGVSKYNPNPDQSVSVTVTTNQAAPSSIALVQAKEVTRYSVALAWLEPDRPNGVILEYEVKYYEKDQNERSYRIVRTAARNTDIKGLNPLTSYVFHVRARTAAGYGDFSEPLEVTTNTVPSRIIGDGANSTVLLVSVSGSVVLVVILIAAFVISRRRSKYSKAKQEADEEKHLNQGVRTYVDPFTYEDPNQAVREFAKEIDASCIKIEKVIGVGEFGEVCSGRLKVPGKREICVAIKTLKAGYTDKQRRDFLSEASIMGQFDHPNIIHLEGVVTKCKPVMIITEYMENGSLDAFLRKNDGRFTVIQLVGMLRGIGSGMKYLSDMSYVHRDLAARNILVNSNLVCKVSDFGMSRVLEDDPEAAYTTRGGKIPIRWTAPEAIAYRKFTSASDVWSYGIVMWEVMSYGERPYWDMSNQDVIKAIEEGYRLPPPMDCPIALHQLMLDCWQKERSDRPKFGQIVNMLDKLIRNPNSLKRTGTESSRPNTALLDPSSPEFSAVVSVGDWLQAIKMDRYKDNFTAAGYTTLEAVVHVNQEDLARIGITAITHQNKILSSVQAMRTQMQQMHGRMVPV
In short: as §1

Plk3(h) = Plk3(h) (Homo sapiens, UniProt Q9H4B4)
In short: as §1

EphB2(h) = EphB2(h) (Homo sapiens, UniProt P29323)
In short: as §1

MST2(h) = MST2(h) (Homo sapiens, UniProt Q13188)
In short: as §1

EGFR(T790M, L858R)(h) = EGFR(T790M, L858R)(h) (Homo sapiens, UniProt P00533, L858R/T790M)
In short: as §1

PKD2(h) = PKD2(h) (Homo sapiens, UniProt Q9BZL6)
In short: as §1

SMILES | inhibition at 0.1 µM (JNK3(h)) | inhibition at 0.1 µM (MRCKβ(h)) | inhibition at 0.1 µM (SAPK2a(T106M)(h)) | inhibition at 0.1 µM (ROCK-II(h)) | inhibition at 0.1 µM (cKit(D816H)(h)) | inhibition at 0.1 µM (p70S6K(h)) | inhibition at 0.1 µM (CDK5/p35(h)) | inhibition at 0.1 µM [1] | inhibition at 0.1 µM [2] | inhibition at 0.1 µM (Met(h)) | inhibition at 0.1 µM (eEF-2K(h)) | inhibition at 0.1 µM (EphA7(h)) | inhibition at 0.1 µM (TAK1(h)) | inhibition at 0.1 µM (CHK2(h)) | inhibition at 0.1 µM (EphA1(h)) | inhibition at 0.1 µM (AMPKα1(h)) | inhibition at 0.1 µM (Hck(h)) | inhibition at 0.1 µM (Fms(Y969C)(h)) | inhibition at 0.1 µM (ALK4(h)) | inhibition at 0.1 µM (MuSK(h)) | also measured
Cc1cc2c(F)c(Oc3nc(Nc4cc(C5CC5)[nH]n4)cc(N4CCN(C)CC4)n3)ccc2[nH]1 [Compound 10] | -1% | -6% | 2% | 11% | 86% | -10% | 20% | -6% | 1% | 54% | -15% | 23% | 38% | 11% | 78% | 71% | 68% | 67% | 77% | 30% | inhibition at 0.1 µM (Tie2(Y897S)(h)): 91%; inhibition at 0.1 µM (CK2(h)): 8%; inhibition at 0.1 µM (Met(Y1248D)(h)): 80%; inhibition at 0.1 µM (MLCK(h)): 0%; inhibition at 0.1 µM (Pim-2(h)): -25%; inhibition at 0.1 µM (EphA4(h)): 52%; inhibition at 0.1 µM (Plk3(h)): 1%; inhibition at 0.1 µM (EphB2(h)): 47%; inhibition at 0.1 µM (MST2(h)): 24%; inhibition at 0.1 µM (EGFR(T790M, L858R)(h)): 53%; inhibition at 0.1 µM (PKD2(h)): -5%
Cc1cc2c(F)c(Oc3nc(Nc4cc(C5CC5)[nH]n4)cc(N4CCNCC4)n3)ccc2[nH]1 [Compound 11, N-(5-cyclopropyl-1H-pyrazol-3-yl)-2-((4-fluoro-2-methyl-1H-indol-5-yl)oxy)-6-(piperazin-1-yl)pyrimidin-4-amine] | -6% | -16% | 3% | 3% | 91% | 2% | 78% | -1% | -1% | 47% | 10% | 34% | 44% | 4% | 92% | 72% | 85% | 73% | 81% | 20% | inhibition at 0.1 µM (Tie2(Y897S)(h)): 93%; inhibition at 0.1 µM (CK2(h)): 5%; inhibition at 0.1 µM (Met(Y1248D)(h)): 76%; inhibition at 0.1 µM (MLCK(h)): 0%; inhibition at 0.1 µM (Pim-2(h)): 17%; inhibition at 0.1 µM (EphA4(h)): 47%; inhibition at 0.1 µM (Plk3(h)): 1%; inhibition at 0.1 µM (EphB2(h)): 76%; inhibition at 0.1 µM (MST2(h)): 22%; inhibition at 0.1 µM (EGFR(T790M, L858R)(h)): 69%; inhibition at 0.1 µM (PKD2(h)): -1%
